{
  "source": "ChEMBL document CHEMBL1782045",
  "about": "“Discovery, synthesis, and investigation of the antitumor activity of novel piperazinylpyrimidine derivatives” (Eur J Med Chem, 2011)",
  "key": {"[1]": {"molecular_target": "T1, Hepatocyte growth factor receptor (Homo sapiens, UniProt P08581)", "T1 sequence (P08581 whole entry)": "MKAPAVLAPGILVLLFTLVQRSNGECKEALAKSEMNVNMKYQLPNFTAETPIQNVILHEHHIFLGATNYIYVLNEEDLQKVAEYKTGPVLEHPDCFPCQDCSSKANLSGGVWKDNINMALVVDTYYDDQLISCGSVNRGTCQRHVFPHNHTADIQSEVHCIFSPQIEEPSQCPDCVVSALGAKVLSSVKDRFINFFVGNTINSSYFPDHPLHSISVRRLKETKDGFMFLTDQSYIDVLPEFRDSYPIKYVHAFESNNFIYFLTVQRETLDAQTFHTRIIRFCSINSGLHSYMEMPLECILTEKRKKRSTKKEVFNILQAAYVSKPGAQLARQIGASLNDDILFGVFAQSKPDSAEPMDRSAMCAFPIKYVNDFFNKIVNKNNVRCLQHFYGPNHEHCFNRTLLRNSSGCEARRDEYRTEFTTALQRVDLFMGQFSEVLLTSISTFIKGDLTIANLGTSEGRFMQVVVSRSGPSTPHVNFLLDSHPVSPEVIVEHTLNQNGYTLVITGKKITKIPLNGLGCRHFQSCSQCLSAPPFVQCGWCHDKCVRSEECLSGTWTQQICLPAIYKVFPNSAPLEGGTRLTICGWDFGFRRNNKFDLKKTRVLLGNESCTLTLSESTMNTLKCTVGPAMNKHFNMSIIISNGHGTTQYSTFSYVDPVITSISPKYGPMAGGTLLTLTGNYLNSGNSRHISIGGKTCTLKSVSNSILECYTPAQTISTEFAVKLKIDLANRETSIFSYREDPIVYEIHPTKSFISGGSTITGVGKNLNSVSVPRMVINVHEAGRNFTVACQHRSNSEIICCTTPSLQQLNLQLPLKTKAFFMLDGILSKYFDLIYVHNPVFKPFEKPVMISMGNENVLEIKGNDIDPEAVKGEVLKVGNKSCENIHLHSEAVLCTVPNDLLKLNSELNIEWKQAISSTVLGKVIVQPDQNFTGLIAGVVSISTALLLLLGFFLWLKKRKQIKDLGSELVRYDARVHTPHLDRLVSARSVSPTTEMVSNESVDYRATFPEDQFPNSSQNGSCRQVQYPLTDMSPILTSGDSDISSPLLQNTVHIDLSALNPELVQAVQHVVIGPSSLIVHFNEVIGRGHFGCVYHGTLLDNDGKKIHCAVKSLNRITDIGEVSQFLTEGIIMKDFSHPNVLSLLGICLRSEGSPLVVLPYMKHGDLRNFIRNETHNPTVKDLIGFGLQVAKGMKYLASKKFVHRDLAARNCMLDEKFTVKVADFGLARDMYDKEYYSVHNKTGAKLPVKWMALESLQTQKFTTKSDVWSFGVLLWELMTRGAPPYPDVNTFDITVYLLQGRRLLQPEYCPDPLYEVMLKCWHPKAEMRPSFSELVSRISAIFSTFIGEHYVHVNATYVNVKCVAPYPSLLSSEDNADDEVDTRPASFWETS", "description": "Binding affinity to human phosphorylated c-MET"}, "[2]": {"molecular_target": "T1, Hepatocyte growth factor receptor", "remark": "listed apart in the source", "description": "Binding affinity to human unphosphorylated c-MET"}},
  "data": [
    {"molecule": "CN(C[C@@H]1COCCO1)S(=O)(=O)Nc1ccc2ccc3ncc(-c4cnn(C)c4)cc3c(=O)c2c1", "note": "[MK-2461]", "values": [
      {"measurement": "Kd", "setting": "[1]", "value": 4.4, "unit": "nM"},
      {"measurement": "Kd", "setting": "[2]", "value": 27.2, "unit": "nM"}
    ]}
  ]
}
